Data published in paper PMC12669672, “Structural insights into selective and dual antagonism of EP2 and EP4 prostaglandin receptors” (The EMBO Journal, 2025).
Several values for one entry are separate records, joined by “and”; a condition that tells them apart may be missing. Equal values may be shown once. Read-outs that look alike come from different tables or passages of the source.

What was measured:
Format in all cases: cell-based
[1] = target: T1, constitutively active EP2 S86A (Homo sapiens, UniProt P43116, S86A); assay: GloSensor cAMP assay, inhibition of constitutive activity
T1 construct: The full-length EP2 or EP4 was cloned into the pcDNA3.1 vector; FLAG (N); expressed in transfected cells; host or cells: AD293 cells
Procedure: (§1) The full-length EP2 or EP4 was cloned into the pcDNA3.1 vector (Invitrogen), incorporating an N-terminal FLAG tag. AD293 cells were seeded in six-well plates containing DMEM supplemented with 10% dialyzed FBS 1 day prior to transfection. Following overnight growth, cells were transfected with a 1:1 ratio of receptor construct and GloSensor22F cAMP biosensor (Promega) plasmids.
(§2) Twenty-four hours post-transfection, the cells were transferred to CO2-independent media containing 2% GloSensor cAMP Reagent (Promega) and distributed into 384-well assay plates at a density of 4000 cells per well in 10 μL. […] The plates were then incubated at 37 °C for an additional hour before luminescence measurements were taken using an EnVision plate reader.
(§3) Data analysis was performed using GraphPad Prism software v8.0.1. A nonlinear regression analysis, employing a sigmoidal dose–response model, was conducted to determine the Emax values and half-maximum inhibitory concentrations (IC50) for each compound tested.

[2] = target: T2, constitutively active EP4 WT (Homo sapiens, UniProt P35408); assay: as above
T2 construct: The full-length EP2 or EP4 was cloned into the pcDNA3.1 vector (Invitrogen), incorporating an N-terminal FLAG tag; expressed in transfected cells; host or cells: AD293
Procedure: as §1, §2, §3

[3] = target: T3, constitutively active EP2 S305A (Homo sapiens, UniProt P43116, S305A); assay: as above
T3 construct: The full-length EP2 or EP4 was cloned into the pcDNA3.1 vector; FLAG (N); expressed in transfected cells; host or cells: AD293 cells
Procedure: as §1, §2, §3

[4] = target: T4, constitutively active EP4 V320A (Homo sapiens, UniProt P35408, V320A); assay: as above
T4 construct: The full-length EP2 or EP4 was cloned into the pcDNA3.1 vector (Invitrogen), incorporating an N-terminal FLAG tag; expressed in transfected cells; host or cells: AD293
Procedure: as §1, §2, §3

[5] = target: T5, constitutively active EP2 W186A (Homo sapiens, UniProt P43116, W186A); assay: as above
T5 construct: The full-length EP2 or EP4 was cloned into the pcDNA3.1 vector; FLAG (N); expressed in transfected cells; host or cells: AD293 cells
Procedure: as §1, §2, §3

[6] = target: T6, EP2-M116L (Homo sapiens, UniProt P43116, M116L); assay: GloSensor cAMP assay, antagonism of PGE2-induced cAMP, chimeric studies; conditions: single experiments 1st-3rd
T6 construct: The full-length EP2 or EP4 was cloned into the pcDNA3.1 vector; FLAG (N); expressed in transfected cells; host or cells: AD293 cells
Procedure: as §1, §2, §3

[7] = target: T7, EP2-I85V (Homo sapiens, UniProt P43116, I85V); assay: as above; conditions: single experiments 1st-3rd
T7 construct: The full-length EP2 or EP4 was cloned into the pcDNA3.1 vector; FLAG (N); expressed in transfected cells; host or cells: AD293 cells
Procedure: as §1, §2, §3

[8] = no PGE2, pIC50 mutant - pIC50 WT, mean
[9] = 1 h, ligand log([M]) -10, Fig. S7B, read-out: % cAMP activity (normalized to WT)
[10] = 1 h, ligand log([M]) -11, Fig. S7B, read-out: % cAMP activity (normalized to WT)

T4 sequence (P35408 whole entry V320A): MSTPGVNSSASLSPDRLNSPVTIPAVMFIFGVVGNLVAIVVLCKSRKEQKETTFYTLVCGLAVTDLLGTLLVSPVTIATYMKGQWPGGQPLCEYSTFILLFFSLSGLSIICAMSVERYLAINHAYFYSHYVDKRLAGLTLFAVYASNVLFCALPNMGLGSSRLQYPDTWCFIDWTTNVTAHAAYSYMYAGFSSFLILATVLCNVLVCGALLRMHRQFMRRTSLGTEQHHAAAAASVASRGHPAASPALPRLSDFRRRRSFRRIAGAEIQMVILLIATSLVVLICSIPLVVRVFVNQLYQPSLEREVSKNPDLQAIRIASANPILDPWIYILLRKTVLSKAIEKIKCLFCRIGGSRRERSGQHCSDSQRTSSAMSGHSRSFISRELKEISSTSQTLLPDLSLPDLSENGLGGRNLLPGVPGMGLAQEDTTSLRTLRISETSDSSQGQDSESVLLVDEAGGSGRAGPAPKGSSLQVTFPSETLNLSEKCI
T2 sequence (P35408 whole entry): as the sequence (P35408 whole entry V320A) above, with A320V counted along it
T6 sequence (P43116 whole entry M116L): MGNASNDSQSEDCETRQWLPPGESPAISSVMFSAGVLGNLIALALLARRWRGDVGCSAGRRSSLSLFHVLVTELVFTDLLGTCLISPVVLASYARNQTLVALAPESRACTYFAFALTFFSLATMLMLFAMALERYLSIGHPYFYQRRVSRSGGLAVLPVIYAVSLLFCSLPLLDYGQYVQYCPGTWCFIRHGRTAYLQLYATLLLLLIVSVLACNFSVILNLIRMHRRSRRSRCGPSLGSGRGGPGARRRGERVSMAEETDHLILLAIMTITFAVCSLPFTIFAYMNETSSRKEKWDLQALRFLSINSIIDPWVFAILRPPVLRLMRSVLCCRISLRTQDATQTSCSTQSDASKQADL
T7 sequence (P43116 whole entry I85V): as the sequence (P43116 whole entry M116L) above, with I85V, L116M counted along it
T5 sequence (P43116 whole entry W186A): as the sequence (P43116 whole entry M116L) above, with L116M, W186A counted along it
T1 sequence (P43116 whole entry S86A): as the sequence (P43116 whole entry M116L) above, with S86A, L116M counted along it
T3 sequence (P43116 whole entry S305A): as the sequence (P43116 whole entry M116L) above, with L116M, S305A counted along it

TG6-129 cAMP activity (∆pIC50 from EP2 WT) ([1]; S86A, single experiments 1st-3rd): -0.744 and -0.540 and -0.726
ΔpIC50 [1, 8]: -0.67 ± 0.07
IC50 [2]: 5.01 µM
remaining activity at 100 µM ([2]; 1 h, TG6-129 log([M]) -4.00, EP4-WT, read-out: % cAMP activity (normalized to WT)): 7.78%
remaining activity at […] ([2]; 1 h, TG6-129 log([M]) -4.70, EP4-WT, read-out: % cAMP activity (normalized to WT)): 22.1%
remaining activity at […] ([2]; 1 h, TG6-129 log([M]) -5.40, EP4-WT, read-out: % cAMP activity (normalized to WT)): 65.6%
remaining activity at […] ([2]; 1 h, TG6-129 log([M]) -6.10, EP4-WT, read-out: % cAMP activity (normalized to WT)): 88.8%
remaining activity at 0.1585 µM ([2]; 1 h, TG6-129 log([M]) -6.80, EP4-WT, read-out: % cAMP activity (normalized to WT)): 91.8%
remaining activity at 0.03236 µM ([2]; 1 h, TG6-129 log([M]) -7.49, EP4-WT, read-out: % cAMP activity (normalized to WT)): 96%
remaining activity at 0.006457 µM ([2]; 1 h, TG6-129 log([M]) -8.19, EP4-WT, read-out: % cAMP activity (normalized to WT)): 103%
remaining activity at 0.001288 µM ([2]; 1 h, TG6-129 log([M]) -8.89, EP4-WT, read-out: % cAMP activity (normalized to WT)): 106%
TG6-129 cAMP activity (∆pIC50 from EP4 WT) ([2]; WT, single experiments 1st-3rd): -0.065 and 0.051 and 0.101
IC50 [3]: 0.0501 µM
TG6-129 cAMP activity (∆pIC50 from EP2 WT), Mean ([3]; S305A, Mean): 0.384
ΔpIC50 [3, 8]: 0.38 ± 0.10
IC50 [4]: 6.76 µM
remaining activity at 100 µM ([4]; 1 h, TG6-129 log([M]) -4.00, EP4-V320A, read-out: % cAMP activity (normalized to WT)): 8.24%
remaining activity at 20 µM ([4]; 1 h, TG6-129 log([M]) -4.70, EP4-V320A, read-out: % cAMP activity (normalized to WT)): 16%
remaining activity at […] ([4]; 1 h, TG6-129 log([M]) -5.40, EP4-V320A, read-out: % cAMP activity (normalized to WT)): 41.7%
remaining activity at […] ([4]; 1 h, TG6-129 log([M]) -6.10, EP4-V320A, read-out: % cAMP activity (normalized to WT)): 57.4%
remaining activity at […] ([4]; 1 h, TG6-129 log([M]) -6.80, EP4-V320A, read-out: % cAMP activity (normalized to WT)): 59.5%
remaining activity at 0.0324 µM ([4]; 1 h, TG6-129 log([M]) -7.49, EP4-V320A, read-out: % cAMP activity (normalized to WT)): 49.7%
remaining activity at 0.00646 µM ([4]; 1 h, TG6-129 log([M]) -8.19, EP4-V320A, read-out: % cAMP activity (normalized to WT)): 54.3%
remaining activity at 0.00129 µM ([4]; 1 h, TG6-129 log([M]) -8.89, EP4-V320A, read-out: % cAMP activity (normalized to WT)): 60.2%
TG6-129 cAMP activity (∆pIC50 from EP4 WT), Mean ([4]; V320A, Mean): -0.014
TG6-129 cAMP activity (∆pIC50 from EP4 WT) ([4]; V320A, single experiments 1st-3rd): 0.016 and -0.105 and 0.048
ΔpIC50 [4, 8]: -0.01 ± 0.04
IC50 [5]: 3.63 µM
remaining activity at 0.1 µM ([5]; 1 h, TG6-129 log([M]) -7, EP2-W186A, read-out: % cAMP activity (normalized to WT)): 91.6%
remaining activity at 0.0001 µM ([5]; 1 h, TG6-129 log([M]) -10, EP2-W186A, read-out: % cAMP activity (normalized to WT)): 92.4%
remaining activity at 10 pM ([5]; 1 h, TG6-129 log([M]) -11, EP2-W186A, read-out: % cAMP activity (normalized to WT)): 99.9%
remaining activity at 1 pM ([5]; 1 h, TG6-129 log([M]) -12, EP2-W186A, read-out: % cAMP activity (normalized to WT)): 97.8%
TG6-129 cAMP activity (∆pIC50 from EP2 WT), Mean ([5]; W186A, Mean): -1.465
ΔpIC50 [5, 8]: -1.47 ± 0.16
remaining activity at 10 µM ([6]; 1 h, ligand log([M]) -5, Fig. S7B, read-out: % cAMP activity (normalized to WT)): 12.1%
remaining activity at 0.0001 µM [6, 9]: 107%
remaining activity at 10 pM [6, 10]: 124%
remaining activity at 1 pM ([6]; 1 h, ligand log([M]) -12, Fig. S7B, read-out: % cAMP activity (normalized to WT)): 116%
cAMP activity (∆pIC50 from EP2 WT) ([6]; Appendix Fig. S7A): -0.454 and -0.463 and -0.341
remaining activity at 1 µM ([7]; 1 h, ligand log([M]) -6, Fig. S7B, read-out: % cAMP activity (normalized to WT)): 12.2%
remaining activity at 0.0001 µM [7, 9]: 102%
remaining activity at 10 pM [7, 10]: 108%
cAMP activity (∆pIC50 from EP2 WT) ([7]; Appendix Fig. S7A): -0.555 and -0.639 and -0.556
Compound: CCc1nnc(NS(=O)(=O)c2ccc(NC(=S)NC(=O)/C=C/c3ccc(F)cc3)cc2)s1 [TG6-129]
